We go through 20 molecules from patent US10351546B2, “Pyridin-3-yl acetic acid derivatives as inhibitors of human immunodeficiency virus replication” (priority 2015, dated 2019).

One assay relates to NL-RLuc virus. The assay is described as follows: Inhibition of HIV replication (NL-RLuc luciferase reporter virus in MT-2 cells). The class given is cell-based. The settings on record: Human immunodeficiency virus 1, MT2, 120 h, read-out: Activity. The text has this: Inhibition of HIV replication: A recombinant NL-RLuc proviral clone was constructed in which a section of the nef gene form NL4-3 was replaced with the Renilla Luciferase gene. This virus is fully infectious and can undergo multiple cycles of replication in cell culture. In addition, the luciferous reporter provides a simple and easy method for quantitating the extent of virus growth and consequently, the antiviral activity of test compounds. The plasmid pNLRLuc contains the proviral NL-Rluc DNA cloned into pUC18 at the PvuII site. The NL-RLuc virus was prepared by transfection of 293T cells with the plasmid pNLRLuc. Transfections were performed using the LipofectAMINE PLUS kit form Invitrogen (Carlsbad, Calif.) according to the manufacturer and the virus generated was titered in MT-2 cells. For susceptibility analyses, the titrated virus was used to infect MT-2 cells in the presence of compound, and after 5 days of incubation, cells were processed and quantitated for virus growth by the amount of expressed luciferase. Assay media was RPMI 1640 supplemented with 10% heat inactivated fetal bovine serum (FBS), 100 units/ml penicillin G/100 units/ml streptomycin, 10 mM HEPES buffer pH 7.55 and 2 mM L-glutamine. The results form at least 2 experiments were used to calculate the EC50 values. Luciferase was quantitated using the Dual Luciferase kit form Promega (Madison, Wis.). Susceptibility of viruses to compounds was determined by incubation in the presence of serial dilutions of the compound. The 50% effective concentration (EC50) was calculated by using the exponential form of the median effect equation where (Fa)=1/[1+(ED50/drug conc.)^m](Johnson V A, Byington R T. Infectivity Assay. In Techniques in HIV Research. ed. Aldovini A, Walker B D. 71-76. New York: Stockton Press. 1990). Activity equal to A refers to a compound having an EC50≤100 nM, while B and C denote compounds having an EC50 between 100 nM and 1 uM (B) or >1 uM (C).
Take `Cc1nnc(C(=O)NCc2nc(C)c([C@H](OC(C)(C)C)C(=O)O)c(N3CCC(C)(C)CC3)c2-c2ccc(OCCc3ccc(F)cc3)cc2)o1` [Example 104, (S)-2-(tert-Butoxy)-2-(4-(4,4-dimethylpiperidin-1-yl)-5-(4-(4-fluorophenethoxy)phenyl)-2-methyl-6-((5-methyl-1,3,4-oxadiazole-2-carboxamido)methyl)pyridin-3-yl)acetic acid]: the EC50 was less than 0.1 µM. Same read-out and setting: then `CCCCN(C)C(=O)c1nc(C)c([C@H](OC(C)(C)C)C(=O)O)c(N2CCC(C)(C)CC2)c1-c1ccc(OCCc2ccc(F)cc2)cc1` [Example 43, (S)-2-(tert-Butoxy)-2-(6-(butyl(methyl)carbamoyl)-4-(4,4-dimethylpiperidin-1-yl)-5-(4-(4-fluorophenethoxy)phenyl)-2-methylpyridin-3-yl)acetic acid], with less than 0.1 µM; and `COc1nc(C)c([C@H](OC(C)(C)C)C(=O)O)c(N2CCC(C)(C)CC2)c1-c1ccc(OCCc2ccc(F)cc2)cc1` (single isomer, unassigned) [Example 51], with less than 0.1 µM. Take `Cc1cc(F)ccc1CN1CCc2cc(-c3c(CNCc4ccncc4)nc(C)c([C@H](OC(C)(C)C)C(=O)O)c3N3CCC(C)(C)CC3)ccc2C1` [Example 124, (S)-2-(tert-Butoxy)-2-(4-(4,4-dimethylpiperidin-1-yl)-5-(2-(4-fluoro-2-methylbenzyl)-1,2,3,4-tetrahydroisoquinolin-6-yl)-2-methyl-6-(((pyridin-4-ylmethyl)amino)methyl)pyridin-3-yl)acetic acid]: the EC50 is less than 0.1 µM.

On to `Cc1cc(F)ccc1CN1CCc2cc(-c3c(CN4CCCC(F)(F)C4)nc(C)c([C@H](OC(C)(C)C)C(=O)O)c3N3CCC(C)(C)CC3)ccc2C1` [Example 129, (S)-2-(tert-Butoxy)-2-(6-((3,3-difluoropiperidin-1-yl)methyl)-4-(4,4-dimethylpiperidin-1-yl)-5-(2-(4-fluoro-2-methylbenzyl)-1,2,3,4-tetrahydroisoquinolin-6-yl)-2-methylpyridin-3-yl)acetic acid], for which the EC50 is less than 0.1 µM. With `Cc1nc(COCc2nc(C)c([C@H](OC(C)(C)C)C(=O)O)c(N3CCC(C)(C)CC3)c2-c2ccc(OCCc3ccc(F)cc3)cc2)sc1C` [Example 20, (S)-2-(tert-Butoxy)-2-(4-(4,4-dimethylpiperidin-1-yl)-6-(((4,5-dimethylthiazol-2-yl)methoxy)methyl)-5-(4-(4-fluorophenethoxy)phenyl)-2-methylpyridin-3-yl)acetic acid], the EC50 was less than 0.1 µM.

As for `Cc1cccc(Cl)c1CN1CCc2cc(-c3c(CN4CCC5(CCC5)CC4)nc(C)c([C@H](OC(C)(C)C)C(=O)O)c3N3CCC(C)(C)CC3)ccc2C1` [Example 180, (S)-2-(6-((7-Azaspiro[3.5]nonan-7-yl)methyl)-5-(2-(2-chloro-6-methylbenzyl)-1,2,3,4-tetrahydroisoquinolin-6-yl)-4-(4,4-dimethylpiperidin-1-yl)-2-methylpyridin-3-yl)-2-(tert-butoxy)acetic acid], the EC50 was less than 0.1 µM. Regarding `Cc1nc(CNCC2COC2)c(-c2ccc(OCCc3ccc(F)cc3)cc2)c(N2CCC(C)(C)CC2)c1[C@H](OC(C)(C)C)C(=O)O` [Example 76, (S)-2-(tert-Butoxy)-2-(4-(4,4-dimethylpiperidin-1-yl)-5-(4-(4-fluorophenethoxy)phenyl)-2-methyl-6-(((oxetan-3-ylmethyl)amino)methyl)pyridin-3-yl)acetic acid], the EC50 was less than 0.1 µM.

In the case of `COCc1ncc([C@H](OC(C)(C)C)C(=O)O)c(N2CCC(C)(C)CC2)c1-c1ccc(OCCc2ccc(F)cc2)cc1` [Example 183, (S)-2-(tert-Butoxy)-2-(4-(4,4-dimethylpiperidin-1-yl)-5-(4-(4-fluorophenethoxy)phenyl)-6-(methoxymethyl)pyridin-3-yl)acetic acid], the EC50 was less than 0.1 µM.

With `Cc1nc(CN2CCN(C)CC2)c(-c2ccc(OCCc3ccc(F)cc3)cc2)c(N2CCC(C)(C)CC2)c1[C@H](OC(C)(C)C)C(=O)O` [Example 94, (S)-2-(tert-Butoxy)-2-(4-(4,4-dimethylpiperidin-1-yl)-5-(4-(4-fluorophenethoxy)phenyl)-2-methyl-6-((4-methylpiperazin-1-yl)methyl)pyridin-3-yl)acetic acid], the EC50 was less than 0.1 µM. Take `CCOCCOCc1nc(C)c([C@H](OC(C)(C)C)C(=O)O)c(N2CCC(C)(C)CC2)c1-c1ccc2c(c1)CCN(Cc1ccc(F)cc1C)C2` [Example 160, (S)-2-(tert-Butoxy)-2-(4-(4,4-dimethylpiperidin-1-yl)-6-((2-ethoxyethoxy)methyl)-5-(2-(4-fluoro-2-methylbenzyl)-1,2,3,4-tetrahydroisoquinolin-6-yl)-2-methylpyridin-3-yl)acetic acid]: the EC50 is less than 0.1 µM. As for `Cc1cc(F)ccc1CN1CCc2cc(-c3c(CN)nc(C)c([C@H](OC(C)(C)C)C(=O)O)c3N3CCC(C)(C)CC3)ccc2C1` [Example 139, (S)-2-(6-(Aminomethyl)-4-(4,4-dimethylpiperidin-1-yl)-5-(2-(4-fluoro-2-methylbenzyl)-1,2,3,4-tetrahydroisoquinolin-6-yl)-2-methylpyridin-3-yl)-2-(tert-butoxy)acetic acid], the EC50 was less than 0.1 µM. Consider `Cc1cc(F)ccc1CN1CCc2cc(-c3c(CN4CC[C@@H](F)C4)nc(C)c([C@H](OC(C)(C)C)C(=O)O)c3N3CCC(C)(C)CC3)ccc2C1` [Example 133, (S)-2-(tert-Butoxy)-2-(4-(4,4-dimethylpiperidin-1-yl)-5-(2-(4-fluoro-2-methylbenzyl)-1,2,3,4-tetrahydroisoquinolin-6-yl)-6-(((R)-3-fluoropyrrolidin-1-yl)methyl)-2-methylpyridin-3-yl)acetic acid], for which the EC50 is less than 0.1 µM. On the same count and under the same terms, then `CCOCCOCCOCc1nc(C)c(-c2ccc(OCCc3ccc(F)cc3)cc2)c(N2CCC(C)(C)CC2)c1[C@H](OC(C)(C)C)C(=O)O` [Example 110, (S)-2-(tert-Butoxy)-2-(4-(4,4-dimethylpiperidin-1-yl)-2-((2-(2-ethoxyethoxy)ethoxy)methyl)-5-(4-(4-fluorophenethoxy)phenyl)-6-methylpyridin-3-yl)acetic acid], with less than 0.1 µM.

For `Cc1cc(F)ccc1CN1CCc2cc(-c3c(CO)nc(C)c([C@H](OC(C)(C)C)C(=O)O)c3N3CCC(C)(C)CC3)ccc2C1` [Example 113, (S)-2-(tert-Butoxy)-2-(4-(4,4-dimethylpiperidin-1-yl)-5-(2-(4-fluoro-2-methylbenzyl)-1,2,3,4-tetrahydroisoquinolin-6-yl)-6-(hydroxymethyl)-2-methylpyridin-3-yl)acetic acid], the EC50 was less than 0.1 µM. Consider `Cc1nc(COCC2COC2)c(-c2ccc(OCCc3ccc(F)cc3)cc2)c(N2CCC(C)(C)CC2)c1[C@H](OC(C)(C)C)C(=O)O` [Example 7, (S)-2-(tert-Butoxy)-2-(4-(4,4-dimethylpiperidin-1-yl)-5-(4-(4-fluorophenethoxy)phenyl)-2-methyl-6-((oxetan-3-ylmethoxy)methyl)pyridin-3-yl)acetic acid], for which the EC50 was less than 0.1 µM. Turning to `Cc1nc(COCN2CCCC2=O)c(-c2ccc(OCCc3ccc(F)cc3)cc2)c(N2CCC(C)(C)CC2)c1[C@H](OC(C)(C)C)C(=O)O` [Example 26, (S)-2-(tert-Butoxy)-2-(4-(4,4-dimethylpiperidin-1-yl)-5-(4-(4-fluorophenethoxy)phenyl)-2-methyl-6-(((2-oxopyrrolidin-1-yl)methoxy)methyl)pyridin-3-yl)acetic acid], the EC50 was less than 0.1 µM. Regarding `COC1CCN(Cc2nc(C)c([C@H](OC(C)(C)C)C(=O)O)c(N3CCC(C)(C)CC3)c2-c2ccc(OCCc3ccc(F)cc3)cc2)CC1` [Example 85, (S)-2-(tert-Butoxy)-2-(4-(4,4-dimethylpiperidin-1-yl)-5-(4-(4-fluorophenethoxy)phenyl)-6-((4-methoxypiperidin-1-yl)methyl)-2-methylpyridin-3-yl)acetic acid], the EC50 is less than 0.1 µM. Take `COCc1nc(C)c([C@H](OC(C)(C)C)C(=O)O)c(N2CCC(C)(C)CC2)c1-c1ccc(OCCc2ccc(F)cc2)cc1` [Example 3, (S)-2-(tert-Butoxy)-2-(4-(4,4-dimethylpiperidin-1-yl)-5-(4-(4-fluorophenethoxy)phenyl)-6-(methoxymethyl)-2-methylpyridin-3-yl)acetic acid]: the EC50 was less than 0.1 µM.

Take `CCOCCOCc1nc(C)c(-c2ccc(OCCc3ccc(F)cc3)cc2)c(N2CCC(C)(C)CC2)c1[C@H](OC(C)(C)C)C(=O)O` [Example 108, (S)-2-(tert-Butoxy)-2-(4-(4,4-dimethylpiperidin-1-yl)-2-((2-ethoxyethoxy)methyl)-5-(4-(4-fluorophenethoxy)phenyl)-6-methylpyridin-3-yl)acetic acid]: the EC50 is less than 0.1 µM.

The same assay, now with this note: Human immunodeficiency virus 1, MT2, 120 h, read-out: EC50 μM.
For `COC1CCN(Cc2nc(C)c([C@H](OC(C)(C)C)C(=O)O)c(N3CCC(C)(C)CC3)c2-c2ccc(OCCc3ccc(F)cc3)cc2)CC1` [Example 85, (S)-2-(tert-Butoxy)-2-(4-(4,4-dimethylpiperidin-1-yl)-5-(4-(4-fluorophenethoxy)phenyl)-6-((4-methoxypiperidin-1-yl)methyl)-2-methylpyridin-3-yl)acetic acid], the EC50 amounted to 0.001 µM.
